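Cells were grown in 96-well plates and exposed to each compound for 48 hours at five concentrations; endpoints were interpolated linearly between bracketing concentrations, or set to the highest concentration if not reached. TGI marks complete inhibition of growth.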
Legend:
Assay in all cases: growth of human tumour cells (NCI), 48 h
MDA-MB-435 = tested on: MDA-MB-435
PC-3 prostate = tested on: PC-3 prostate
A498 renal = tested on: A498 renal
786-0 renal = tested on: 786-0 renal
HCC-2998 colon = tested on: HCC-2998 colon
MOLT-4 leukemia = tested on: MOLT-4 leukemia
RXF 393 renal = tested on: RXF 393 renal
MCF7 breast = tested on: MCF7 breast
SK-OV-3 ovarian = tested on: SK-OV-3 ovarian
KM12 colon = tested on: KM12 colon
OVCAR-3 ovarian = tested on: OVCAR-3 ovarian
SR leukemia = tested on: SR leukemia
SK-MEL-28 melanoma = tested on: SK-MEL-28 melanoma
TK-10 renal = tested on: TK-10 renal
K-562 leukemia = tested on: K-562 leukemia
SN12C renal = tested on: SN12C renal
UO-31 renal = tested on: UO-31 renal
T-47D breast = tested on: T-47D breast
SK-MEL-2 melanoma = tested on: SK-MEL-2 melanoma
SF-268 CNS = tested on: SF-268 CNS
U251 CNS = tested on: U251 CNS
M14 melanoma = tested on: M14 melanoma
OVCAR-4 ovarian = tested on: OVCAR-4 ovarian
ACHN renal = tested on: ACHN renal
RPMI-8226 leukemia = tested on: RPMI-8226 leukemia
HOP-62 NSCLC = tested on: HOP-62 NSCLC
DU-145 prostate = tested on: DU-145 prostate
HS 578T breast = tested on: HS 578T breast
SK-MEL-5 melanoma = tested on: SK-MEL-5 melanoma
NCI-H460 lung = tested on: NCI-H460 lung
SNB-19 CNS = tested on: SNB-19 CNS
A549 NSCLC = tested on: A549 NSCLC
BT-549 breast = tested on: BT-549 breast
HCT-116 colon = tested on: HCT-116 colon
LOX IMVI melanoma = tested on: LOX IMVI melanoma
HT29 colon = tested on: HT29 colon
SW-620 colon = tested on: SW-620 colon
NCI-H522 lung = tested on: NCI-H522 lung
COLO 205 colon = tested on: COLO 205 colon
HCT-15 colon = tested on: HCT-15 colon
NCI-H23 lung = tested on: NCI-H23 lung
CCRF-CEM leukemia = tested on: CCRF-CEM leukemia
OVCAR-8 ovarian = tested on: OVCAR-8 ovarian
MALME-3M melanoma = tested on: MALME-3M melanoma
MDA-MB-231 breast = tested on: MDA-MB-231 breast
SF-295 CNS = tested on: SF-295 CNS
IGROV1 ovarian = tested on: IGROV1 ovarian
NCI/ADR-RES ovarian = tested on: NCI/ADR-RES ovarian
UACC-62 melanoma = tested on: UACC-62 melanoma
MDA-N = tested on: MDA-N
NCI-H226 lung = tested on: NCI-H226 lung
SNB-75 CNS = tested on: SNB-75 CNS
UACC-257 melanoma = tested on: UACC-257 melanoma
SF-539 CNS = tested on: SF-539 CNS
CAKI-1 renal = tested on: CAKI-1 renal
HOP-92 NSCLC = tested on: HOP-92 NSCLC
EKVX NSCLC = tested on: EKVX NSCLC
OVCAR-5 ovarian = tested on: OVCAR-5 ovarian

Measured: TGI

O=C1c2ccccc2NC(=S)[C@@H]2CCCN12
> 100 µM: all assays above
